pIC50, pKd: −log10 of the molar value.
Legend:
[1] = target: T1, TYK2 (JH2domain-pseudokinase) (Homo sapiens, UniProt P29597); experiment: TYK2 JH2 domain binding assay (KINOMEscan)
T1 construct: TYK2 (JH2domain-pseudokinase)-tagged T7 phage strains were prepared in an E. coli host derived from the BL21 strain; made in house; host or cells: E. coli BL21-derived host (T7 phage) or HEK-293 cells
Summary of the method: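 Competition binding of DNA-tagged TYK2 JH2 pseudokinase domain against immobilised affinity ligand, 1 h at room temperature in SeaBlock/PBS/Tween/DTT buffer with about 1% DMSO. Bound kinase eluted and quantified by qPCR. Kd taken from 11-point 3-fold series, usually 30,000 nM top, fitted by Levenberg-Marquardt nonlinear least squares.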

[2] = tested on: STAT1/3 through TYK2/JAK1; experiment: IFNa induced STAT phosphorylation in HEK293 cells (SIE-bla reporter gene); format: cell-based; conditions: Homo sapiens, HEK293; HEK293T-sie-bla cells, IFNa at EC80, 4 hours; read-out: Inhibition of IFNa induced STAT phosphorylation HEK293 cells IC50
Summary of the method: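 HEK293T cells carrying a SIE-driven β-lactamase reporter were co-treated with compound (1/5 serial dilution, 10 points, 0.1% DMSO final) and IFNa at EC80 for 4 h at 37°C. β-Lactamase substrate was added to stop the stimulation, followed by overnight dark incubation and FRET read. IC50 from a four-parameter logistic fit.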

T1 sequence (P29597 589-875 limits assumed): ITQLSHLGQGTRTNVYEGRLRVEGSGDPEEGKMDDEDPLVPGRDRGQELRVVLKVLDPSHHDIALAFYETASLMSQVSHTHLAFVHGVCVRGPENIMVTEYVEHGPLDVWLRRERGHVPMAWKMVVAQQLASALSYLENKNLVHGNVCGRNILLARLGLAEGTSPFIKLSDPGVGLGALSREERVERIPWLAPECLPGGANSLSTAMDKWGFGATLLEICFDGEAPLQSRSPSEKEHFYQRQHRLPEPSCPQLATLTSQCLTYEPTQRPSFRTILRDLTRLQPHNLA

Row | Structure (SMILES) | pKd [1] | pIC50 [2]
1 | Cc1cc(Nc2cc(Nc3cccc(F)c3N(C)S(C)(=O)=O)ncn2)nc(C)n1 [Example 76, N-[2-[[6-[(2,6-dimethylpyrimidin-4-yl)amino]pyrimidin-4-yl]amino]-6-fluorophenyl]-N-methylmethanesulfonamide] | > 9.70 | 7.00 to 8.00
2 | Cc1cc(Nc2cc(Nc3ccc(C(=O)N(C)C)cc3N(C)S(C)(=O)=O)ncn2)nc(C)n1 [Example 77, 4-[[6-[(2,6-dimethylpyrimidin-4-yl)amino]pyrimidin-4-yl]amino]-N,N-dimethyl-3-[methyl(methylsulfonyl)amino]benzamide] | > 9.70 | 7.00 to 8.00
3 | COc1cc(C(=O)N2CCCC2)ccc1Nc1cc(Nc2cc(C)nc(C)n2)ncn1 [Example 78, [4-[[6-[(2,6-dimethylpyrimidin-4-yl)amino]pyrimidin-4-yl]amino]-3-methoxy-phenyl]-pyrrolidin-1-yl-methanone] | 8.00 to 9.00 | < 6.00
4 | COc1cc(-c2ncc(F)cn2)ccc1Nc1cc(Nc2cc(C)nc(C)n2)ncn1 [Example 81, N4-(2,6-dimethylpyrimidin-4-yl)-N6-[4-(5-fluoropyrimidin-2-yl)-2-methoxyphenyl]pyrimidine-4,6-diamine] | < 8.00 | < 6.00
5 | COc1c(Nc2cc(Nc3cc(C)nc(C)n3)ncn2)ccc(-c2ncn(C)n2)c1C [Example 83, N6-(2,6-dimethylpyrimidin-4-yl)-N4-[2-methoxy-3-methyl-4-(1-methyl-1,2,4-triazol-3-yl)phenyl]pyrimidine-4,6-diamine] | 8.00 to 9.00 | < 6.00
6 | COc1c(Nc2cc(Nc3cc(C)nc(C)n3)ncn2)ccc(-c2cnn(C)c2C)c1C [Example 84, N4-[4-(1,5-dimethylpyrazol-4-yl)-2-methoxy-3-methyl-phenyl]-N6-(2,6-dimethylpyrimidin-4-yl)pyrimidine-4,6-diamine] | > 9.70 | 7.00 to 8.00
7 | COc1cc(-c2ncn(C)n2)ccc1Nc1cc(Nc2cc(C)nc(C)n2)ncn1 [Example 85, N6-(2,6-dimethylpyrimidin-4-yl)-N4-[2-methoxy-4-(1-methyl-1,2,4-triazol-3-yl)phenyl]pyrimidine-4,6-diamine] | 8.00 to 9.00 | 7.00 to 8.00
8 | Cc1cc(Nc2cc(Nc3ncc(-c4cc(C(F)(F)F)nn4C)cc3N(C)S(C)(=O)=O)ncn2)nc(C)n1 [Example 87, N-[2-[[6-[(2,6-dimethylpyrimidin-4-yl)amino]pyrimidin-4-yl]amino]-5-[2-methyl-5-(trifluoromethyl)pyrazol-3-yl]-3-pyridyl]-N-methyl-methanesulfonamide] | 9.00 to 9.70 | < 6.00
9 | Cc1cc(Nc2cc(Nc3ncc(-c4c(C)nn(C)c4C)cc3N(C)S(C)(=O)=O)ncn2)nc(C)n1 [Example 88, N-[2-[[6-[(2,6-dimethylpyrimidin-4-yl)amino]pyrimidin-4-yl]amino]-5-(1,3,5-trimethylpyrazol-4-yl)-3-pyridyl]-N-methyl-methanesulfonamide] | > 9.70 | 7.00 to 8.00
10 | Cc1cc(Nc2cc(Nc3ccc(-c4cn[nH]c4C)cc3N(C)S(C)(=O)=O)ncn2)nc(C)n1 [Example 89, N-[2-[[6-[(2,6-dimethylpyrimidin-4-yl)amino]pyrimidin-4-yl]amino]-5-(5-methyl-1H-pyrazol-4-yl)phenyl]-N-methyl-methanesulfonamide] | > 9.70 | 7.00 to 8.00
11 | COc1cc(-c2cn(C)cn2)ccc1Nc1cc(Nc2cc(C)nc(C)n2)ncn1 [Example 90, N4-(2,6-dimethylpyrimidin-4-yl)-N6-[2-methoxy-4-(1-methylimidazol-4-yl)phenyl]pyrimidine-4,6-diamine] | 8.00 to 9.00 | < 6.00
12 | COc1cc(-c2nccn2C)ccc1Nc1cc(Nc2cc(C)nc(C)n2)ncn1 [Example 91, N4-(2,6-dimethylpyrimidin-4-yl)-N6-[2-methoxy-4-(1-methylimidazol-2-yl)phenyl]pyrimidine-4,6-diamine] | 8.00 to 9.00 | 6.00 to 7.00
13 | Cc1cc(Nc2cc(Nc3ccc(C4=CCCCO4)cc3N(C)S(C)(=O)=O)ncn2)nc(C)n1 [Example 92, N-[5-(3,4-dihydro-2H-pyran-6-yl)-2-[[6-[(2,6-dimethylpyrimidin-4-yl)amino]pyrimidin-4-yl]amino]phenyl]-N-methylmethanesulfonamide] | > 9.70 | > 8.00
14 | COc1cc(-c2noc(C)n2)ccc1Nc1cc(Nc2cc(C)nc(C)n2)ncn1 [Example 93, N6-(2,6-dimethylpyrimidin-4-yl)-N4-[2-methoxy-4-(5-methyl-1,2,4-oxadiazol-3-yl)phenyl]pyrimidine-4,6-diamine] | 8.00 to 9.00 | < 6.00
15 | Cc1cc(Nc2cc(Nc3ccc(C4=CCCOC4)cc3N(C)S(C)(=O)=O)ncn2)nc(C)n1 [Example 94, N-[5-(3,6-dihydro-2H-pyran-5-yl)-2-[[6-[(2,6-dimethylpyrimidin-4-yl)amino]pyrimidin-4-yl]amino]phenyl]-N-methyl-methanesulfonamide] | > 9.70 | > 8.00
16 | Cc1cc(Nc2cc(Nc3ccc(C4=CCOCC4)cc3N(C)S(C)(=O)=O)ncn2)nc(C)n1 [Example 95, N-[5-(3,6-dihydro-2H-pyran-4-yl)-2-[[6-[(2,6-dimethylpyrimidin-4-yl)amino]pyrimidin-4-yl]amino]phenyl]-N-methyl-methanesulfonamide] | > 9.70 | > 8.00
17 | Cc1cc(Nc2cc(Nc3c(F)cc(-c4cnn(C)c4C)cc3S(C)(=O)=O)ncn2)nc(C)n1 [Example 96, N4-[4-(1,5-dimethylpyrazol-4-yl)-2-fluoro-6-methylsulfonyl-phenyl]-N6-(2,6-dimethylpyrimidin-4-yl)pyrimidine-4,6-diamine] | 8.00 to 9.00 | 6.00 to 7.00
18 | Cc1cc(Nc2cc(Nc3ccc(-c4nc(C)n(C)n4)cc3N(C)S(C)(=O)=O)ncn2)nc(C)n1 [Example 97, N-[2-[[6-[(2,6-dimethylpyrimidin-4-yl)amino]pyrimidin-4-yl]amino]-5-(1,5-dimethyl-1,2,4-triazol-3-yl)phenyl]-N-methyl-methanesulfonamide] | > 9.70 | 7.00 to 8.00
19 | Cc1cc(Nc2cc(Nc3ccc(-c4nc(C)nn4C)cc3N(C)S(C)(=O)=O)ncn2)nc(C)n1 [Example 99, N-[2-[[6-[(2,6-dimethylpyrimidin-4-yl)amino]pyrimidin-4-yl]amino]-5-(2,5-dimethyl-1,2,4-triazol-3-yl)phenyl]-N-methyl-methanesulfonamide] | 9.00 to 9.70 | 7.00 to 8.00
20 | Cc1cc(C)c(N(C)S(C)(=O)=O)c(Nc2cc(Nc3cc(C)ncn3)ncn2)c1 [Example 100, N-[2,4-dimethyl-6-[[6-[(6-methylpyrimidin-4-yl)amino]pyrimidin-4-yl]amino]phenyl]-N-methylmethanesulfonamide] | < 8.00 | < 6.00
21 | Cc1cc(Nc2cc(Nc3ccccc3N(C)S(C)(=O)=O)ncn2)ncc1F [Example 101, N-[2-[[6-[(5-fluoro-4-methyl-2-pyridyl)amino]pyrimidin-4-yl]amino]phenyl]-N-methyl-methanesulfonamide] | > 9.70 | 7.00 to 8.00
22 | CN(c1ccccc1Nc1cc(Nc2ccc(C#N)cn2)ncn1)S(C)(=O)=O [Example 102, N-[2-[[6-[(5-cyano-2-pyridyl)amino]pyrimidin-4-yl]amino]phenyl]-N-methyl-methanesulfonamide] | 9.00 to 9.70 | 7.00 to 8.00

From patent EP4206196A1, “PYRIMIDINE SUBSTITUTED DERIVATIVES AS TYK2 INHIBITORS” (Almirall S.A., priority 2021, dated 2023)
